The subject of data set [1] is patients without positive bacterial cultures localized to the prostatic fluid. As to the kind of experiment: Example II: double blind placebo-controlled study using 30 patients. The format is in vivo. On the procedure:
A double blind study using 30 patients without positive bacterial cultures localized to the prostatic fluid are enrolled in a double blind study. Seventeen of the patients receive a composition comprised of quercetin in amount of 500 milligrams, bromelin in an amount of 10 milligrams, and papain in an amount of 10 milligrams as the active ingredients thereof. After a randomized study is completed, an additional fifteen patients are treated in an open label study with only the […]. […] The mean symptom score improves from 21.0 to 13.1 in the group receiving quercetin, but from 20.2 to 18.8 in the placebo group. This represents an improvement of 35%. In those patients which receive only the quercetin, without the papain and bromelin, with obtainable secretions, the white blood cell count in the decreases from 16.8 to 5.3, versus a decrease from 13.1 to 8.3 in the placebo patients.

Data set [2] has as its system chronic interstitial cystitis syndromes. The conditions noted are these: quercetin alone; cited from earlier work.
Data set [3] is described as follows: Tests of bioavailability of quercetin alone. The class given is in vivo. The conditions noted are these: transmural intestinal absorption relatively low.

As for `O=c1c(O)c(-c2ccc(O)c(O)c2)oc2cc(O)cc(O)c12` [quercetin], in data set [1] (end value of the group), the “mean symptom score, after treatment” value was 13.1. The “improvement of mean symptom score” value in data set [1] (human, in vivo) is on record as 35%. Moreover, the “white blood cell count in secretions, after treatment” value in data set [1] (patients with obtainable secretions, end value) was 5.3. Moreover, the “white blood cell count in secretions, before treatment” value in data set [1] (patients with obtainable secretions, start value) is on record as 16.8. The “mean symptom score, before treatment” value in data set [1] (start value of the group) was 21.0. For the same molecule, the “symptomatic response of patients” value in data set [2] is reported as “significant”. Also, the bioavailability entry in data set [3] was “does not have a high bioavailability”.

(Values after patent US20010051191A1, “Composition and method for treating non-bacterial cystitis” (priority 2000, published 2001).)
